Measurements reported in article PMC8901636, “Preclinical studies of Flonoltinib Maleate, a novel JAK2/FLT3 inhibitor, in treatment of JAK2^V617F-induced myeloproliferative neoplasms” (Blood Cancer Journal, 2022).
Like-named read-outs stand apart in the source and are kept apart here.

Legend:
[1] = system: HEL; test: MTT assay for cell proliferation; type: cell-based; details: Homo sapiens, 72 h, read-out: IC50(μM) ± SD, tumor cell proliferation
Description: (§2) For in vitro inhibition assays, cells were seeded in 96-well culture plates with a density of 15,000–20,000 cells/well after the cells reached 70–90% confluence. […] MTT (3-(4, 5-dimethylthiazol-2-yl)-2, 5-diphenyltetrazolium bromide) (Cat. No. 1334GR001; BioFroxx) assay was conducted in order to examine viability. The IC50 values were fitted using GraphPad Prism 7.0.

[2] = system: Ba/F3-JAK2^V617F; test: MTT assay for cell proliferation; type: cell-based, Murine; details: Mus musculus, 72 h, read-out: IC50(μM) ± SD, tumor cell proliferation
Description: as §2

[3] = system: Ba/F3-EPOR-JAK2^V617F; test: MTT assay for cell proliferation; type: cell-based, Murine; details: Mus musculus
Description: as §2

[4] = system: Molm-13; test: MTT assay for cell proliferation; type: cell-based; details: Homo sapiens, MOLM-13, 72 h, read-out: IC50(μM) ± SD, tumor cell proliferation
Description: as §2

[5] = system: Ba/F3-FLT3-ITD; test: MTT assay for cell proliferation; type: cell-based, Murine; details: Mus musculus, Ba/F3 FLT3-ITD, 72 h, read-out: IC50(μM) ± SD, tumor cell proliferation
Description: as §2

[6] = system: Ba/F3-FLT3-ITD^D835V; test: MTT assay for cell proliferation; type: cell-based, Murine; details: Mus musculus, 72 h, read-out: IC50(μM) ± SD, tumor cell proliferation
Description: as §2

[7] = system: FLT3 mutant tumor cell lines; test: MTT assay for cell proliferation, summary of panel; type: cell-based; details: summary of Table S7
Description: (§1) For in vitro inhibition assays, cells were seeded in 96-well culture plates with a density of 15,000–20,000 cells/well after the cells reached 70–90% confluence. After overnight incubation, the cells received a supplement of serial concentrations of FM and underwent 72 h incubation at 37 °C under 5% CO2. MTT (3-(4, 5-dimethylthiazol-2-yl)-2, 5-diphenyltetrazolium bromide) (Cat. No. 1334GR001; BioFroxx) assay was conducted in order to examine viability. The IC50 values were fitted using GraphPad Prism 7.0.

[8] = system: JAK2^V617F mutant cell lines; test: MTT assay for cell proliferation, summary of panel; type: cell-based; details: summary of Table S7; read-out: anti-proliferative IC50 on JAK2^V617F mutant cell lines
Description: as §1

[9] = PK and tissue distribution after single oral administration in Ba/F3-EPOR-JAK2^V617F tumor-bearing mice; type: in vivo
[10] = BALB/c nude, mouse, brain, oral, 30 mg/kg, single, read-out: FM concentration, Brain
[11] = BALB/c nude, mouse, heart, oral, 30 mg/kg, single, read-out: FM concentration, Heart
[12] = BALB/c nude, mouse, intestine, oral, 30 mg/kg, single, read-out: FM concentration, Intestine
[13] = BALB/c nude, mouse, kidney, oral, 30 mg/kg, single, read-out: FM concentration, Kidney
[14] = BALB/c nude, mouse, liver, oral, 30 mg/kg, single, read-out: FM concentration, Liver
[15] = BALB/c nude, mouse, lung, oral, 30 mg/kg, single, read-out: FM concentration, Lung
[16] = BALB/c nude, mouse, muscle, oral, 30 mg/kg, single, read-out: FM concentration, Muscle
[17] = BALB/c nude, mouse, plasma, oral, 30 mg/kg, single, read-out: FM concentration, Plasma

In the case of Cc1cnc(Nc2ccc(N3CCC(N(C)CCO)CC3)c(F)c2)nc1-c1cnn(C(C)C)c1 [FM, 2-((1-(2-fluoro-4-((4-(1-isopropyl-1H-pyrazol-4-yl)-5-methylpyrimidin-2-yl)amino)phenyl)piperidin-4-yl)(methyl)amino)ethan-1-ol], the IC50 [1] is reported as 0.26 ± 0.2 µM, the IC50 [2] is reported as 0.2 ± 0.01 µM and the IC50 ([3]; 72 h, read-out: IC50(μM) ± SD, tumor cell proliferation) is reported as 0.78 ± 0.21 µM. It also gave an IC50 ([3]; as quoted in PK/PD text, read-out: IC50 value of Ba/F3-EPOR-JAK2^V617F cells in vitro) of 0.79 ± 0.01 µM, an IC50 [4] of 0.06 ± 0.03 µM and an IC50 [5] of 0.12 ± 0.01 µM. The IC50 [6] was 0.1 ± 0.06 µM, the IC50 [7] was under 0.1 µM and the IC50 [8] was under 0.5 µM. For the same compound, the “drug concentration in the spleen” value ([9]; 8 h after single oral 30 mg/kg, by calculation) was 2416 ± 1657 nmol/kg, the concentration at 0.5 h [9, 10] was 354 ± 77.1 ng/g and the concentration at 2 h [9, 10] was 309 ± 40.5 ng/g. The concentration at 4 h [9, 10] was 157 ± 58.3 ng/g, the concentration at 8 h [9, 10] was 38.4 ± 28.5 ng/g and the concentration at 0.5 h [9, 11] was 3390 ± 184 ng/g. For the same compound, the concentration at 2 h [9, 11] was 1650 ± 381 ng/g, the concentration at 4 h [9, 11] was 864 ± 418 ng/g and the concentration at 8 h [9, 11] was 199 ± 145 ng/g. It also gave a concentration at 0.5 h [9, 12] of 14900 ± 11400 ng/g, a concentration at 2 h [9, 12] of 6250 ± 3230 ng/g and a concentration at 4 h [9, 12] of 8490 ± 2240 ng/g. The concentration at 8 h [9, 12] was 4360 ± 4050 ng/g, the concentration at 0.5 h [9, 13] was 12100 ± 1260 ng/g and the concentration at 2 h [9, 13] was 6220 ± 855 ng/g. For the same compound, the concentration at 4 h [9, 13] was 2410 ± 1010 ng/g, the concentration at 8 h [9, 13] was 1050 ± 767 ng/g and the concentration at 0.5 h [9, 14] was 12800 ± 3700 ng/g. It also gave a concentration at 2 h [9, 14] of 6530 ± 2920 ng/g, a concentration at 4 h [9, 14] of 3820 ± 1480 ng/g and a concentration at 8 h [9, 14] of 845 ± 662 ng/g. The concentration at 0.5 h [9, 15] was 11600 ± 2960 ng/g, the concentration at 2 h [9, 15] was 3820 ± 739 ng/g and the concentration at 8 h [9, 15] was 603 ± 481 ng/g. For the same compound, the concentration at 0.5 h [9, 16] was 633 ± 619 ng/g, the concentration at 2 h [9, 16] was 217 ± 116 ng/g and the concentration at 4 h [9, 16] was 152 ± 73.9 ng/g. The concentration at 8 h [9, 16] was 43.1 ± 42 ng/g, the concentration at 0.25 h ([9]; BALB/c nude, mouse, plasma, oral, 30 mg/kg, single, 0.25 h, read-out: FM concentration, Plasma) was 653 ± 108 ng/mL and the concentration at 0.5 h [9, 17] was 857 ± 74.5 ng/mL. The concentration at 1 h ([9]; BALB/c nude, mouse, plasma, oral, 30 mg/kg, single, 1 h, read-out: FM concentration, Plasma) was 922 ± 302 ng/mL, the concentration at 2 h [9, 17] was 458 ± 88.2 ng/mL and the concentration at 4 h [9, 17] was 248 ± 80.8 ng/mL.
